Data taken from patent US20250236622A1, “BICYCLIC COMPOUNDS AS INHIBITORS OF WRN” (Incyte Corporation, priority 2023, published 2025).

Columns and labels:
WRN [1] = target: T1, WRN (Homo sapiens, UniProt Q14191); test: WRN ATPase Activity Assay (ADP-Glo); format: biochemical; conditions: 1-hr pre-incubation with enzyme; 100 μM ATP, 25 nM forked dsDNA, 1 nM WRN; geometric mean of at least 2 replicates
T1 construct: A His-tagged construct of WRN (AA S2-S1235) was produced and used for the ATPase assay; made in house; host or cells: Sf9 insect cells (baculovirus, pFastBac1)
Experimental: Compounds of the Examples were tested for WRN ATPase activity. WRN ATPase activity catalyzes ATP hydrolysis to produce ADP and phosphate. DNA encoding the target protein, 6×HIS-TEV-WRN-517-945, was produced, cloned and transfected as detailed in Example D. The amount of ADP produced was measured using ADP-Glo™ Kinase Assay kit from Promega Corporation in a Greiner white regular volume 384 wells assay plate (Greiner #781075). Data was normalized to a standard curve generated using various ADP concentrations and the corresponding luminescent signal intensities at each concentration.
The assay conditions were optimized for enzyme concentration (WRN), substrate concentrations (ATP & dsDNA), and the linearity of the ATPase reaction, in the following assay buffer: 50 mM Tris-HCl, pH-7.5, 2 mM MgCl2, 50 mM NaCl, 1 mM EGTA, 0.01% P-20, 0.05% BSA, and 2 mM DTT prepared with nuclease free water.
A serial dilution (1:3 scheme) of the compounds were prepared in neat DMSO, with 100 nL of the compounds dispensed in the 384 wells assay plate. An 1-hr pre-incubation of the compounds with enzyme was included. A His-tagged construct of WRN (AA S2-S1235) was produced and used for the ATPase assay. Maximum inhibition control wells were set up with the addition of only assay buffer, and no inhibition control wells were set up with neat DMSO without test compounds. The reaction was initiated by addition of 5 μL substrate mix (200 μM ultrapure ATP, and 50 nM dsDNA prepared in assay buffer) and incubated at 25° C. for 35 min. A forked dsDNA oligomer substrate was prepared by annealing equal amounts of oligo GPat-1 ([BHQ2][…]) and oligo GPat-2 ([…][TAM]) and was used as dsDNA substrate for WRN ATPase assay. A typical ATPase reaction consists of 25 nM forked dsDNA, 100 μM ATP, and 1 nM WRN prepared in assay buffer. The WRN ATPase reaction was stopped by the addition of 5 μL of ADP-Glo Reagent from ADP-Glo™ Kinase Assay kit and incubated for 40 min to deplete the unreacted ATP. Afterwards, 5 μL of Kinase Detection Reagent from the ADP-Glo™ Kinase Assay kit was added and incubated for 1 hr for the development of luminescence signal.
Luminesce signals were measured on BMG PHERAstar FSX using luminescence protocol. Data analysis was carried out using Genedata software following % of control normalization. Fitting parameters include dose response IC50, Hill slope (n), maximum inhibition (S∞), and minimum inhibition (S0). The reported IC50 values for compounds in this invention are the geometric means of at least 2 independent replicates.

WRN [2] = target: T1, WRN; test: WRN Helicase Activity Assay (fluorescence DNA unwinding); format: biochemical; conditions: 1-hr pre-incubation with enzyme; 100 μM ATP, 25 nM forked dsDNA, 1 nM WRN; geometric mean of at least 2 replicates
Experimental: Compounds of the examples were tested for WRN helicase activity. DNA encoding the target protein, 6×HIS-TEV-WRN-517-945, was produced, cloned and transfected as detailed in Example D. To determine the inhibitory properties of the compounds, a 384 wells plate-based Helicase assay was set up to measure the extent of DNA unwinding (Helicase) activity of WRN. The WRN Helicase assay was designed to measure increase in fluorescence signal using a fluorescence based, donor-quencher paired forked dsDNA oligomer substrate (custom synthesis from Sigma-Aldrich) prepared by annealing equal amounts of oligo GPat-1 ([BHQ2][…]) and oligo GPat-2 ([…][TAM]). Continuous measurement of fluorescent signal was used to optimize the buffer conditions, concentration of enzyme (WRN), concentration of substrates (ATP & dsDNA), and the linearity of the Helicase reaction. All solutions were prepared in the following assay buffer: 50 mM Tris-HCl, pH-7.5, 2 mM MgCl2, 50 mM NaCl, 1 mM EGTA, 0.01% P-20, 0.05% BSA, and 2 mM DTT prepared with nuclease free water.
A serial dilution (1:3 scheme) of the compounds was prepared in neat DMSO and 100 nL of the compounds was dispensed in the Greiner black low volume (Greiner #784076) 384 wells assay plate. An 1-hr pre-incubation of the compounds with enzyme was included. A His-tagged construct of WRN (AA S2-S1235) was produced and used for the ATPase assay. Maximum inhibition control wells were set up with the addition of only assay buffer, and no inhibition control wells were set up with neat DMSO without test compounds. The reaction was initiated by addition of 5 μL substrate mix (200 μM ultrapure ATP, and 50 nM dsDNA prepared in assay buffer) and incubated at 25° C. for 35 min. A typical Helicase reaction consists of 25 nM forked dsDNA, 100 μM ATP, and 1 nM WRN prepared in assay buffer. The WRN Helicase reaction was quenched by the addition of 5 μL ‘STOP’ solution containing 100 mM EDTA (final EDTA concentration 33.33 mM) prepared in assay buffer. The plates were read on BMG PHERAstar FSX using 540/590 module to measure an increase of fluorescence. Data analysis was carried out using the Genedata software following % of control normalization. Fitting parameters include dose response IC50, Hill slope (n), maximum inhibition (S∞), and minimum inhibition (S0). The reported IC50 values for compounds in this invention are the geometric means of at least 2 independent replicates.

T1 sequence (Q14191 2-1235): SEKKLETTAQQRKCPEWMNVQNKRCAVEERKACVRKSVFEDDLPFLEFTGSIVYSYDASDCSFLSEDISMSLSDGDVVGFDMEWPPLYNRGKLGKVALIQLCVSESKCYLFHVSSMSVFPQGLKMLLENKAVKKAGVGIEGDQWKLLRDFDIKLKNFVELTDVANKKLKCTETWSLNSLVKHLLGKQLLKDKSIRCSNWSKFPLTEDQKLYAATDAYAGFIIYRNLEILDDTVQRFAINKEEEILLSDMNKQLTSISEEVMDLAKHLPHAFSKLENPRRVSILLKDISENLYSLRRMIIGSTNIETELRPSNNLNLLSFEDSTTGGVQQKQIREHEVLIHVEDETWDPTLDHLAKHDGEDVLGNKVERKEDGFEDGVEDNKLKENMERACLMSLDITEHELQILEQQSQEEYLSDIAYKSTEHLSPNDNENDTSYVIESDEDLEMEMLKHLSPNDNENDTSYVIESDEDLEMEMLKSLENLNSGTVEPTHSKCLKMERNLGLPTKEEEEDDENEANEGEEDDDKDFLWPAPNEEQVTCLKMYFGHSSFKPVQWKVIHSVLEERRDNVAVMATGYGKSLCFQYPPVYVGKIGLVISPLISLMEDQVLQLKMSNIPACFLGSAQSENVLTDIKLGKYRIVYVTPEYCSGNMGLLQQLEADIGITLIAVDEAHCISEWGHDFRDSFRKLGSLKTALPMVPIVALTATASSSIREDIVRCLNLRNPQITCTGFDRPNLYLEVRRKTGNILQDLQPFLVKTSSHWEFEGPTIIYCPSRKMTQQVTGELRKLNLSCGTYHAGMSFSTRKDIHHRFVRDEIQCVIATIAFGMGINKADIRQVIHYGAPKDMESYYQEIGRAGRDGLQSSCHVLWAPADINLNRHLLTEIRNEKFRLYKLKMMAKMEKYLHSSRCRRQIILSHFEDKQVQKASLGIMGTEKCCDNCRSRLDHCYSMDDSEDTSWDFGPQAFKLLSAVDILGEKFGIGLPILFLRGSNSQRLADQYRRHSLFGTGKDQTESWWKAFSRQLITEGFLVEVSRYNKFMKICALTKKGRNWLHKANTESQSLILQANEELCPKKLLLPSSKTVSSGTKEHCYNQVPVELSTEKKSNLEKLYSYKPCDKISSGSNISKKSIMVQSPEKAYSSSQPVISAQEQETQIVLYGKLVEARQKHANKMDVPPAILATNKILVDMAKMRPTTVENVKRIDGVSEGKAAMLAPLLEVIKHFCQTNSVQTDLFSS

| Compound | IC50 (WRN [1]) | IC50 (WRN [2]) |
| --- | --- | --- |
| C=CC(=O)Nc1ccccc1-c1c(CC)nc2n(CC(=O)Nc3ccc(C(F)(F)F)cc3)c(C)nn2c1=O [Example 1, N-(2-(5-Ethyl-2-methyl-7-oxo-3-(2-oxo-2-((4-(trifluoromethyl)phenyl)amino)ethyl)-3,7-dihydro-[1,2,4]triazolo[1,5-a]pyrimidin-6-yl)phenyl)acrylamide] | < 0.1 µM | < 0.1 µM |
| C=CC(=O)Nc1ccccc1-c1c(CC)nc2n(CC(=O)Nc3ccc(C(F)(F)F)cc3)c(C3CC3)nn2c1=O [Example 2, N-(2-(2-Cyclopropyl-5-ethyl-7-oxo-3-(2-oxo-2-((4-(trifluoromethyl)phenyl)amino)ethyl)-3,7-dihydro-[1,2,4]triazolo[1,5-a]pyrimidin-6-yl)phenyl)acrylamide] | < 0.1 µM | < 0.1 µM |
| C=CC(=O)Nc1ccccc1-c1c(CC)nc2n(CC(=O)Nc3ccc(C(F)(F)F)cc3)c(C3CCC3)nn2c1=O [Example 3, N-(2-(2-Cyclobutyl-5-ethyl-7-oxo-3-(2-oxo-2-((4-(trifluoromethyl)phenyl)amino)ethyl)-3,7-dihydro-[1,2,4]triazolo[1,5-a]pyrimidin-6-yl)phenyl)acrylamide] | 0.1 to 0.5 µM | 0.1 to 0.5 µM |
| C=CC(=O)Nc1ccccc1-c1c(CC)nc2n(CC(=O)Nc3ccc(C(F)(F)F)cc3)c(C3CCCCC3)nn2c1=O [Example 4, N-(2-(2-Cyclohexyl-5-ethyl-7-oxo-3-(2-oxo-2-((4-(trifluoromethyl)phenyl)amino)ethyl)-3,7-dihydro-[1,2,4]triazolo[1,5-a]pyrimidin-6-yl)phenyl)acrylamide] | 1 to 5 µM | 5 to 20 µM |
| C=CC(=O)Nc1ccccc1-c1c(CC)nc2n(CC(=O)Nc3ccc(C(F)(F)F)cc3)c(-c3cccs3)nn2c1=O [Example 5, N-(2-(5-ethyl-7-oxo-3-(2-oxo-2-((4-(trifluoromethyl)phenyl)amino)ethyl)-2-(thiophen-2-yl)-3,7-dihydro-[1,2,4]triazolo[1,5-a]pyrimidin-6-yl)phenyl)acrylamide] | 0.1 to 0.5 µM | 0.1 to 0.5 µM |
| C=CC(=O)Nc1ccccc1-c1c(CC)nc2n(CC(=O)Nc3ccc(C(F)(F)F)cc3)c(C3CCNCC3)nn2c1=O [Example 6, N-(2-(5-Ethyl-7-oxo-3-(2-oxo-2-((4-(trifluoromethyl)phenyl)amino)ethyl)-2-(piperidin-4-yl)-3,7-dihydro-[1,2,4]triazolo[1,5-a]pyrimidin-6-yl)phenyl)acrylamide] | 1 to 5 µM | 1 to 5 µM |
